Experimental findings from patent US20250051347A1, “BIFUNCTIONAL CHIMERIC HETEROCYCLIC COMPOUND AND USE THEREOF AS ANDROGEN RECEPTOR DEGRADER” (Hinova Pharmaceuticals, Inc., priority 2021, published 2025) are described below.

Each structure is given as a SMILES string. Read-outs that look alike come from different tables or passages of the source.

The target of test [1] is T1, androgen receptor (AR) splicing variant AR-v7 (Homo sapiens, UniProt P10275).
T1 construct: The degradation activity of compounds on AR-v7 in 22RV1 cells; host or cells: 22RV1 cells
T1 sequence (P10275 1-644 isoform P10275-3): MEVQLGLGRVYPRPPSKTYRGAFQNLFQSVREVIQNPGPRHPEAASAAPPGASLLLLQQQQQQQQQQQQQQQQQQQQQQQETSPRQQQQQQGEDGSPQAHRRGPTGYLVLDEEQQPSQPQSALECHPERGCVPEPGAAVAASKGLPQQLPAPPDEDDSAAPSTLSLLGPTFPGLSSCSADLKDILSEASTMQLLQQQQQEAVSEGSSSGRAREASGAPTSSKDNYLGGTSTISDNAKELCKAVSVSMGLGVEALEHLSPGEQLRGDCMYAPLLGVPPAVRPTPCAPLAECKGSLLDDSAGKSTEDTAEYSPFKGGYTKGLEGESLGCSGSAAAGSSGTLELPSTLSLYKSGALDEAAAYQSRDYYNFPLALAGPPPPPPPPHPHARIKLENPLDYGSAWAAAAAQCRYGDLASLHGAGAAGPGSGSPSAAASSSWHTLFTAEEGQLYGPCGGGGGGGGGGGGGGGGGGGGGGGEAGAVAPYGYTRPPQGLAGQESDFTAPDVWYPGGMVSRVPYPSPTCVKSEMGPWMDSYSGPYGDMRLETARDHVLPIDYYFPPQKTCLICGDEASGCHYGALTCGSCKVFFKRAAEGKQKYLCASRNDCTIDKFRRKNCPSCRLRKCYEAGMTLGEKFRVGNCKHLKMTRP
Put plainly: Degradation activity on androgen receptor splicing variant AR-v7 in 22RV1 cells (ELISA). Type of test: cell-based. As to conditions: AR-v7 degradation in 22RV1 cells, 48 h, class symbols. On the technique in general: In an ELISA, binding on a coated surface is turned into a signal by an enzyme label.

Setting [2] is: Homo sapiens, 22Rv1, 144 h, read-out: 22RV1 IC50 (nM), 22RV1 cells, 6 days culture, CCK-8, OD 450 nm.
Setting [3] is: read-out: 22RV1 IC50, 22RV1 cells, 6 days culture, CCK-8, OD 450 nm.

As for `CNc1nccc(COc2ccc(C(C)(C)c3ccc(O[C@H]4C[C@H](Nc5ccc6c(c5)C(=O)N(C5CCC(=O)NC5=O)C6=O)C4)cc3)cc2)n1` (stereo partly drawn) [Example 395], the DC50 (commonly the concentration giving 50% degradation) in test [1] was under 10 nM. In the test on 22RV1 cells (setting [2]), the IC50 – broadly, the point on the concentration scale where inhibition reaches its midpoint – turned out to be 10 nM.

For the compound `CC(C)(c1ccc(OCc2ccnc(N3CCOCC3)n2)cc1)c1ccc(OC2CC(Nc3ccc4c(c3)C(=O)N(C3CCC(=O)NC3=O)C4=O)C2)cc1` (stereo not drawn) [Example 396, 2-(2,6-dioxopyridin-3-yl)-5-(1s,3s)-3-(4-(2-(4-(2-morpholinylpyrimidin-4-yl)methoxy)phenyl)propan-2-yl)phenoxy)cyclobutyl)amino)isoindol-1,3-dione], in test [1], the DC50 is under 10 nM. Also, in the test on 22RV1 cells (setting [3]), the IC50 worked out at 23 nM.

`CC(C)(c1ccc(OCc2ccnc(N3CCC[C@@H](O)C3)n2)cc1)c1ccc(O[C@H]2C[C@@H](Nc3ccc4c(c3)C(=O)N(C3CCC(=O)NC3=O)C4=O)C2)cc1` (stereo partly drawn) [Example 397]: the DC50 in test [1] was under 10 nM. For the same compound, in the test on 22RV1 cells (setting [2]), the IC50 was found to be 13 nM.

The compound `CC(C)(c1ccc(OCc2ccnc(N3CC[C@H](O)C3)n2)cc1)c1ccc(OC2CC(Nc3ccc4c(c3)C(=O)N(C3CCC(=O)NC3=O)C4=O)C2)cc1` (stereo partly drawn) [Example 398] returned a 50% degradation concentration (DC50) in test [1] of under 10 nM. Moreover, the IC50 with 22RV1 cells (setting [3]) was determined as 9 nM.

As to `CC(C)(c1ccc(OCc2ccnc(N3CCC[C@H](O)C3)n2)cc1)c1ccc(O[C@H]2C[C@@H](Nc3ccc4c(c3)C(=O)N(C3CCC(=O)NC3=O)C4=O)C2)cc1` (stereo partly drawn) [Example 399], the DC50 in test [1] was under 10 nM. Besides, in the test on 22RV1 cells (setting [2]), the IC50 amounted to 16 nM.

The compound `CN(C)C1CN(c2nccc(COc3ccc(C(C)(C)c4ccc(O[C@H]5C[C@@H](Nc6ccc7c(c6)C(=O)N(C6CCC(=O)NC6=O)C7=O)C5)cc4)cc3)n2)C1` (stereo partly drawn) [Example 400] displayed a DC50 in test [1] of under 10 nM. Moreover, in the test on 22RV1 cells (setting [2]), the concentration for half-maximal inhibition (IC50) amounted to 10 nM.

Compound `CC(C)(c1ccc(OCc2ccnc(-n3ccnc3)n2)cc1)c1ccc(OC2CC(Nc3ccc4c(c3)C(=O)N(C3CCC(=O)NC3=O)C4=O)C2)cc1` (stereo not drawn) [Example 405, 5-((1s,3s)-3-(4-(2-(2-(1H-imidazol-1-yl)pyrimidin-4-yl)methoxy)phenyl)propan-2-yl)phenoxy)cyclobutyl)amino)-2-(2,6-dioxopiperidin-3-yl)isoindol-1,3-dione] displayed a 50% degradation concentration (DC50) in test [1] of under 10 nM. Moreover, in the test with 22RV1 cells (setting [3]), the concentration for half-maximal inhibition (IC50) is 19 nM.

Take `CC(C)(c1ccc(OCc2ccnc(N3CC(N4CCC4)C3)n2)cc1)c1ccc(O[C@H]2C[C@@H](Nc3ccc4c(c3)C(=O)N(C3CCC(=O)NC3=O)C4=O)C2)cc1` (stereo partly drawn) [Example 410]: the DC50 in test [1] is under 10 nM. For the same compound, in the test on 22RV1 cells (setting [2]), the IC50 turned out to be 6 nM.

The compound `CC(C)(c1ccc(OCc2cccc(N3CC4(COC4)C3)n2)cc1)c1ccc(O[C@H]2C[C@H](Nc3ccc4c(c3)C(=O)N(C3CCC(=O)NC3=O)C4=O)C2)cc1` (stereo partly drawn) [Example 413] gave a DC50 in test [1] of under 10 nM. For the same compound, the IC50 with 22RV1 cells (setting [2]) worked out at 11 nM.

As to `CC(C)(c1ccc(OCc2ccnc(N3CC(N4CCC4)C3)n2)cc1)c1ccc(O[C@H]2C[C@H](Nc3ccc4c(c3)C(=O)N(C3CCC(=O)NC3=O)C4=O)C2)cc1` (stereo partly drawn) [Example 414], in test [1], the DC50 was under 10 nM. In addition, the IC50 with 22RV1 cells (setting [2]) came to 6 nM.

Regarding `Cn1cc(-c2cccc(COc3ccc(C(C)(C)c4ccc(O[C@H]5C[C@H](Nc6ccc7c(c6)C(=O)N(C6CCC(=O)NC6=O)C7=O)C5)cc4)cc3)n2)cn1` (stereo partly drawn) [Example 416], in test [1], the DC50 is under 10 nM. Also, the concentration for half-maximal inhibition (IC50) with 22RV1 cells (setting [2]) was found to be 22 nM.

`CC(C)(c1ccc(OCc2cccc(-n3nccn3)n2)cc1)c1ccc(O[C@H]2C[C@H](Nc3ccc4c(c3)C(=O)N(C3CCC(=O)NC3=O)C4=O)C2)cc1` (stereo partly drawn) [Example 419] registered a DC50 in test [1] of under 10 nM. In the test with 22RV1 cells (setting [2]), the IC50 was found to be 8 nM.

For `CC(C)(c1ccc(OCc2ccnc(N3CC(N4CC(F)C4)C3)n2)cc1)c1ccc(O[C@H]2C[C@H](Nc3ccc4c(c3)C(=O)N(C3CCC(=O)NC3=O)C4=O)C2)cc1` (stereo partly drawn) [Example 420], the DC50 in test [1] was under 10 nM. Besides, the IC50 with 22RV1 cells (setting [2]) was 5 nM.

`Cc1nc(-c2cccc(Oc3ccc(C(C)(C)c4ccc(O[C@H]5C[C@H](Nc6ccc7c(c6)C(=O)N(C6CCC(=O)NC6=O)C7=O)C5)cc4)cc3)n2)no1` (stereo partly drawn) [Example 421] came in with a DC50 in test [1] of under 10 nM. Besides, in the test with 22RV1 cells (Homo sapiens, 22Rv1, 144 h, read-out: 22RV1 IC50 (nM)), the IC50 stood at 3 nM.

Take `CN1CCN(c2ccc(Oc3ccc(C(C)(C)c4ccc(O[C@H]5C[C@H](Nc6ccc7c(c6)C(=O)N(C6CCC(=O)NC6=O)C7=O)C5)cc4)cc3)nn2)CC1` (stereo partly drawn) [Example 425]: the DC50 in test [1] was under 10 nM. Besides, the half-inhibitory concentration (IC50) with 22RV1 cells (setting [2]) was determined as 16 nM.

Turning to `CCC(=O)c1ncc(Oc2ccc(C(C)(C)c3ccc(O[C@H]4C[C@H](Nc5ccc6c(c5)C(=O)N(C5CCC(=O)NC5=O)C6=O)C4)cc3)cc2)cn1` (stereo partly drawn) [Example 427], the DC50 in test [1] is under 10 nM. Further, the IC50 in the test with 22RV1 cells (setting [2]) was 6 nM.

Turning to `CCC(O)c1ncc(Oc2ccc(C(C)(C)c3ccc(O[C@H]4C[C@H](Nc5ccc6c(c5)C(=O)N(C5CCC(=O)NC5=O)C6=O)C4)cc3)cc2)cn1` (stereo partly drawn) [Example 428], in test [1], the DC50 was under 10 nM. Also, the IC50 in the test on 22RV1 cells (setting [2]) was found to be 6 nM.

In turn, `Cc1nnc(Oc2ccc(C(C)(C)c3ccc(O[C@H]4C[C@H](Nc5ccc6c(c5)C(=O)N(C5CCC(=O)NC5=O)C6=O)C4)cc3)cc2)o1` (stereo partly drawn) [Example 429, 2-(2,6-dioxopiperidin-3-yl)-5-((1r,3r)-3-(4-(2-(4-((5-methyl-1,3,4-oxadiazol-2-yl)oxy)phenyl)propan-2-yl)phenoxy)cyclobutyl)aminoisoindol-1,3-dione] displayed a half-maximal degradation concentration (DC50) in test [1] of under 10 nM. Also, the IC50 in the test on 22RV1 cells (setting [2]) came out at 9 nM.

As for `CCC(CC)(c1ccc(Oc2ccc(C(C)O)nn2)cc1)c1ccc(O[C@H]2C[C@@H](Nc3ccc4c(c3)C(=O)N(C3CCC(=O)NC3=O)C4=O)C2)cc1` (stereo partly drawn) [Example 430], the DC50 in test [1] was under 10 nM. In addition, the IC50 in the test with 22RV1 cells (setting [2]) came to 9 nM.

Turning to `CCC(CC)(c1ccc(Oc2ccc(C(C)=O)nn2)cc1)c1ccc(OC2CC(Nc3ccc4c(c3)C(=O)N(C3CCC(=O)NC3=O)C4=O)C2)cc1` (stereo not drawn) [Example 431, 5-((1s,3s)-3-(4-(3-(4-((6-acetylpyridazine-3-yl)oxy)phenyl)pentan-3-yl)phenoxy)cyclobutyl)amino)-2-(2,6-dioxopyridin-3-yl)isoindol-1,3-dione], the DC50 in test [1] was under 10 nM. Besides, the IC50 in the test with 22RV1 cells (setting [3]) worked out at 4 nM.

As to `CNC(=O)c1ncc(Oc2ccc(C(C)(C)c3ccc(O[C@H]4C[C@H](Nc5ccc6c(c5)C(=O)N(C5CCC(=O)NC5=O)C6=O)C4)cc3)cc2)cn1` (stereo partly drawn) [Example 432], in test [1], the DC50 is under 10 nM. Moreover, in the test with 22RV1 cells (setting [2]), the half-inhibitory concentration (IC50) amounted to 7 nM.

In turn, `CC(C)(c1ccc(Oc2cnc(-n3nccn3)nc2)cc1)c1ccc(O[C@H]2C[C@H](Nc3ccc4c(c3)C(=O)N(C3CCC(=O)NC3=O)C4=O)C2)cc1` (stereo partly drawn) [Example 436, 5-(((1r,3r)-3-(4-(2-(4-((2-(2H-1,2,3-triazol-2-yl)pyrimidin-5-yl)oxy)phenyl)propan-2-yl)phenoxy)cyclobutyl)amino)-2-(2,6-dioxopiperidin-3-yl)isoindolin-1,3-dione] yielded a DC50 in test [1] of under 10 nM. The IC50 with 22RV1 cells (setting [2]) worked out at 6 nM.

In test [1], `CC(C)(c1ccc(OCCCNc2ccc3c(c2)C(=O)N(C2CCC(=O)NC2=O)C3=O)cc1)c1ccc(OCc2ccnc(NC3CC3)n2)cc1` (stereo not drawn) [Example 444, 5-((3-(4-(2-(4-((2-(cyclopropylamino)pyrimidin-4-yl)methoxy)phenyl)propan-2-yl)phenoxy)propyl)amino)-2-(2,6-dioxopiperidin-3-yl)isoindolin-1,3-dione] gave a DC50 of 11 to 100 nM. For the same compound, in the test with 22RV1 cells (setting [2]), the IC50 turned out to be 62 nM.

`CC(C)(c1ccc(OCc2ccnc(-n3ccnn3)n2)cc1)c1ccc(O[C@H]2C[C@@H](Nc3ccc4c(c3)C(=O)N(C3CCC(=O)NC3=O)C4=O)C2)cc1` (stereo partly drawn) [Example 445, 5-(((1s,3s)-3-(4-(2-(4-((2-(1H-1,2,3-triazol-1-yl)pyrimidin-4-yl)methoxy)phenyl)propan-2-yl)phenoxy)cyclobutyl)amino)-2-(2,6-dioxopiperidin-3-yl)isoindolin-1,3-dione] registered a DC50 in test [1] of under 10 nM. Moreover, the IC50 in the test on 22RV1 cells (setting [2]) turned out to be 5 nM.

Take `COc1nccc(COc2ccc(C(C)(C)c3ccc(OC4CC(Nc5ccc6c(c5)C(=O)N(C5CCC(=O)NC5=O)C6=O)C4)cc3)cc2)n1` (stereo not drawn) [Example 447, 2-(2,6-dioxopiperidin-3-yl)-5-((3-(4-(2-(4-((2-methoxypyrimidin-4-yl)methoxy)phenyl)propan-2-yl)phenoxy)cyclobutyl)amino) isoindolin-1,3-dione]: the DC50 in test [1] was under 10 nM. Besides, the IC50 in the test on 22RV1 cells (setting [2]) stood at 8 nM.

The compound `CC1CN(c2nccc(COc3ccc(C(C)(C)c4ccc(OC5CC(Nc6ccc7c(c6)C(=O)N(C6CCC(=O)NC6=O)C7=O)C5)cc4)cc3)n2)CCN1C` (stereo not drawn) [Example 448] returned a DC50 in test [1] of 11 to 100 nM. For the same compound, the IC50 in the test with 22RV1 cells (setting [2]) amounted to 11 nM.

As for `COc1nccc(COc2ccc(C(C)(C)c3ccc(O[C@H]4C[C@H](Nc5ccc6c(c5)C(=O)N(C5CCC(=O)NC5=O)C6=O)C4)cc3)cc2)n1` (stereo partly drawn) [Example 449, 2-(2,6-dioxopiperidin-3-yl)-5-(((1r,3r)-3-(4-(2-(4-((2-methoxypyrimidin-4-yl)methoxy)phenyl)propan-2-yl)phenoxy)cyclobutyl)amino) isoindolin-1,3-dione], the DC50 in test [1] was in the range of 11 to 100 nM. The IC50 in the test with 22RV1 cells (setting [2]) turned out to be 10 nM.
